Experiments:
[1] = target: Delta-type opioid receptor (Homo sapiens, UniProt P41143); type: cell membranes, HEK293, Membrane; settings: hek293; note: in other assays of this panel Not Active means under 50% inhibition at 10 µM
[2] = target: T1, Alpha-1D adrenergic receptor (Homo sapiens, UniProt P25100); type: cell membranes, HEK293, Membrane; settings: hek293; note: in other assays of this panel Not Active means under 50% inhibition at 10 µM
T1 sequence (P25100 whole entry): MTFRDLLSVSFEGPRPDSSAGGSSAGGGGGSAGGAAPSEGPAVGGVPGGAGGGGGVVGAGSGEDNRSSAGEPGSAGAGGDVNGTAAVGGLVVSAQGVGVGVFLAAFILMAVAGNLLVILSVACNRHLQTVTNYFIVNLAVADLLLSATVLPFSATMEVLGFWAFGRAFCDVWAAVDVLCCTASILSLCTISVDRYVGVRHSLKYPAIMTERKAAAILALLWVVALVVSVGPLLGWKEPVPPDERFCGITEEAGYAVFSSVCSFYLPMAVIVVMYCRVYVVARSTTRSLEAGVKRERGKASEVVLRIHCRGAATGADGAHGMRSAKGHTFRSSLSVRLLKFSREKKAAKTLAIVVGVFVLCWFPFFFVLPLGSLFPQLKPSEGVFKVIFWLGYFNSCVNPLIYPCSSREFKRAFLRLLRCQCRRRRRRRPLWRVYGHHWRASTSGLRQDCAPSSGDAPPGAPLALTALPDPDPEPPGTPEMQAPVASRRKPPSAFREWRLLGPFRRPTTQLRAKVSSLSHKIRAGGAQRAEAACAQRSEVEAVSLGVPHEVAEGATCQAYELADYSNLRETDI

[3] = target: T2, Vasoactive intestinal polypeptide receptor 1 (Homo sapiens, UniProt P32241); type: cell membranes, Membrane; settings: ht-29; note: in other assays of this panel Not Active means under 50% inhibition at 10 µM
T2 sequence (P32241 whole entry): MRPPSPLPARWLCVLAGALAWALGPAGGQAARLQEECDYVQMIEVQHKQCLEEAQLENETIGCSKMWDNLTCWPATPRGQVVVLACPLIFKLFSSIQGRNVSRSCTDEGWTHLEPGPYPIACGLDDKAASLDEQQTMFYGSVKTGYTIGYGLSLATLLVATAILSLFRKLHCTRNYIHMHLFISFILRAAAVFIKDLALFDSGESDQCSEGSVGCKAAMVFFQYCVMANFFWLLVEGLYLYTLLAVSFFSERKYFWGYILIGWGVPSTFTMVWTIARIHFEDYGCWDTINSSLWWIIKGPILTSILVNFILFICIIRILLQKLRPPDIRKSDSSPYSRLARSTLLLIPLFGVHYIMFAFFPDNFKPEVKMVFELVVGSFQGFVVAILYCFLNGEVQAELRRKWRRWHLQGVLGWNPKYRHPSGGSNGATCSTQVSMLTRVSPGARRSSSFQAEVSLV

[4] = target: T3, Alpha-2C adrenergic receptor (Homo sapiens, UniProt P18825); experiment: DRUGMATRIX: Adrenergic Alpha-2C radioligand binding (ligand: [3H] MK-912); type: cell membranes, Sf9, Membrane; for IC50: call rule not given here
T3 sequence (P18825 whole entry): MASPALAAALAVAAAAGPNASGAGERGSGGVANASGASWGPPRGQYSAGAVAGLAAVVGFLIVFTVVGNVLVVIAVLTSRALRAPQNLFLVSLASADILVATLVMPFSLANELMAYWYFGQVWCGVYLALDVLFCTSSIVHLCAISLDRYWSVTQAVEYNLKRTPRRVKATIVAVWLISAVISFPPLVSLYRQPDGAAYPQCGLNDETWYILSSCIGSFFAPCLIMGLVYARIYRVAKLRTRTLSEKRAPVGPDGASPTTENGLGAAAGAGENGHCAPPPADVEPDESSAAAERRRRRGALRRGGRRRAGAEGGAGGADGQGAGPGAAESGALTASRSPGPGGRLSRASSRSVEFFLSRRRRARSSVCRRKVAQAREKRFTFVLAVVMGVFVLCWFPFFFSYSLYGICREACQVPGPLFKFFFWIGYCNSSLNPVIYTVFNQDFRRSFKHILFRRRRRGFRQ

[5] = target: T4, Polyunsaturated fatty acid lipoxygenase ALOX15 (Oryctolagus cuniculus, UniProt P12530); experiment: biochemical; type: tissue-based, Reticulocytes; settings: reticulocytes;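 note: inhibition of 15-lipoxygenase enzyme activity measured with linoleic acid as the substrate; in other assays of this panel Not Active means under 50% inhibition at 10 µM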
T4 sequence (P12530 whole entry): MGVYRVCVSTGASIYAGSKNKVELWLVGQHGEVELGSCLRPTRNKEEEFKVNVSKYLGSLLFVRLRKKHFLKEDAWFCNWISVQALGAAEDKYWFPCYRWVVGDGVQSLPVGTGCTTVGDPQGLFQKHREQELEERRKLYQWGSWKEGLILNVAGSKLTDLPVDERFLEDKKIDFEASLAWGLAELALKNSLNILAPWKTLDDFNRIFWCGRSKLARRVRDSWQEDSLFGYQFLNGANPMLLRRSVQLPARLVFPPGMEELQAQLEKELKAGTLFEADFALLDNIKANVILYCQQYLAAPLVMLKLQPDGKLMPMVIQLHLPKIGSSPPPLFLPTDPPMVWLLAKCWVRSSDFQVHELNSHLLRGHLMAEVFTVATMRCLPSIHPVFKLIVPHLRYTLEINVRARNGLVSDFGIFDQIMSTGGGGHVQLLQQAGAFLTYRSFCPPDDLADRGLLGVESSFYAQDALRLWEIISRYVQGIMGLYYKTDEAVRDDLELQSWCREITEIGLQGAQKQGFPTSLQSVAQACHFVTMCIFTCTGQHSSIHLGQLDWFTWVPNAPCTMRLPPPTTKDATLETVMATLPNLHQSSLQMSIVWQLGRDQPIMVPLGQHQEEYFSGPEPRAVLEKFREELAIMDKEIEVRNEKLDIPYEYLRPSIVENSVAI

[6] = target: T5, Neuropeptide Y receptor type 2 (Homo sapiens, UniProt P49146); type: cell membranes, Membrane; settings: kan-ts; note: in other assays of this panel Not Active means under 50% inhibition at 10 µM
T5 sequence (P49146 whole entry): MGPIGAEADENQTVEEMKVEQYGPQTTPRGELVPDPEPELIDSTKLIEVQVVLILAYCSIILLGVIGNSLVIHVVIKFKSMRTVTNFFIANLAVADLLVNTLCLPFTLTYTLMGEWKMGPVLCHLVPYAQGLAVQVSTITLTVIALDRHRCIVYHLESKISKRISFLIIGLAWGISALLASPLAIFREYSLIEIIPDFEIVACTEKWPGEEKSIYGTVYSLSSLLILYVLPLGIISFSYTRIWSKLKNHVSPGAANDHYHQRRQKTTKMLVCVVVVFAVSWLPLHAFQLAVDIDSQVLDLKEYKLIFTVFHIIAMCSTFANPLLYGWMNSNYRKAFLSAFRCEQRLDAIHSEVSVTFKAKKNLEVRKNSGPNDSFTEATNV

Delta-type opioid receptor, sequence (P41143 whole entry): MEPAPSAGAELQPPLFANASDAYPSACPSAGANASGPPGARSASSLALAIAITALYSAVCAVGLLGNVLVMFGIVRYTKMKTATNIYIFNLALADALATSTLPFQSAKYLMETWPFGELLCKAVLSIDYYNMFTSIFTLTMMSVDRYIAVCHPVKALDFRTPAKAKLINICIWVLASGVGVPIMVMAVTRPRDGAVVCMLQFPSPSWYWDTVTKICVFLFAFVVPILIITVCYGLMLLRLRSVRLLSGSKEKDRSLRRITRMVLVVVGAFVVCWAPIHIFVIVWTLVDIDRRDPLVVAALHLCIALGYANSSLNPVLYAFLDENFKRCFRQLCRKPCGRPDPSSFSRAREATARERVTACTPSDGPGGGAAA

Compound	IC50 [1]	IC50 [2]	IC50 [3]	IC50 ([4]; sf9)	IC50 [5]	IC50 [6]	Ki [1]	Ki [2]	Ki [3]	Ki ([4]; sf9)	Ki [5]	Ki [6]	IC50 ([4]; read-out: IC50)	Ki ([4]; read-out: Ki)
O=P1(N(CCCl)CCCl)NCCCO1 (stereo not drawn) [CYCLOPHOSPHAMIDE ANHYDROUS]	Not Active	Not Active	Not Active	Not Active	Not Active	Not Active								
INSULIN HUMAN	Not Active	Not Active	Not Active	Not Active	Not Active	Not Active	Not Active	Not Active	Not Active	Not Active	Not Active	Not Active		
CS(=O)(=O)OCCCCOS(C)(=O)=O [BUSULFAN]	Not Active	Not Active	Not Active	Not Active	Not Active	Not Active								
CC(C)(CO)C(O)C(=O)NCCCO (stereo not drawn) [PANTHENOL]	Not Active	Not Active	Not Active	Not Active	Not Active	Not Active								
O=C(O)c1cc(=O)c2c(OCC(O)COc3cccc4oc(C(=O)O)cc(=O)c34)cccc2o1 [CROMOLYN]	Not Active	Not Active	Not Active	Not Active	Not Active	Not Active								
O=C(/C=C/c1ccc(O)c(O)c1)OCCc1ccccc1 [CAFFEIC ACID PHENETHYL ESTER]	Not Active	Not Active	Not Active	Not Active	Not Active	Not Active								
Nc1nc(Cl)nc2c1ncn2[C@H]1C[C@H](O)[C@@H](CO)O1 [CLADRIBINE]	Not Active	Not Active	Not Active	Not Active	Not Active	Not Active								
CC[C@H](C)C(=O)O[C@H]1C[C@@H](C)C=C2C=C[C@H](C)[C@H](CC[C@@H]3C[C@@H](O)CC(=O)O3)[C@H]21 [LOVASTATIN]	Not Active	Not Active	Not Active	Not Active	Not Active	Not Active								
CC[C@H](C)C(=O)O[C@H]1C[C@H](O)C=C2C=C[C@H](C)[C@H](CC[C@@H](O)C[C@@H](O)CC(=O)O)[C@H]21 [PRAVASTATIN]	Not Active	Not Active	Not Active	Not Active	Not Active	Not Active								
CCOC(=O)n1ccn(C)c1=S [CARBIMAZOLE]	Not Active	Not Active	Not Active	Not Active	Not Active	Not Active								
C#C[C@]1(O)CC[C@H]2[C@@H]3CCC4=Cc5oncc5C[C@]4(C)[C@H]3CC[C@@]21C [DANAZOL]	Not Active	Not Active	Not Active		Not Active	Not Active							23.8 µM	3.45 µM

Source: ChEMBL document CHEMBL1909046, “DrugMatrix in vitro pharmacology data”
